Experimental data taken from publication PMC10504751, “Chalcone/1,3,4-Oxadiazole/Benzimidazole hybrids as novel anti-proliferative agents inducing apoptosis and inhibiting EGFR & BRAFV^600E” (BMC Chemistry, 2023).
Where two headings read alike, the source gives them in different places.

How the values were obtained:
[1] = test system: HCT-116; assay: NCI one-dose SRB anti-proliferative screen; assay type: cell-based, human; details: for inhibition at 10 µM: Homo sapiens, read-out: Cell growth inhibition %
Description: (§1) The twenty-four synthesized compounds were submitted to the National Cancer Institute (NCI), USA. Eighteen hybrids 7a-h, 7k-r, 7u, and 7v were selected by NCI for one-dose assessment of their anti-proliferative activities at 10 µM dose by Sulforhodamine B colorimetric assay. The assessment was performed in 60 cell lines derived from nine tumor subpanels, comprising lung, leukemia, melanoma, colon, renal, CNS, prostate, breast, and ovarian cancer cell lines.
(§2) The methodology of the NCI anti-proliferative screening has been described in details elsewhere (http://www.dtp.nci.nih.gov).

[2] = test system: K-562; assay: NCI one-dose SRB anti-proliferative screen; assay type: cell-based, human; details: for inhibition at 10 µM: Homo sapiens, K562, read-out: Cell growth inhibition %
Description: as §1, §2

[3] = test system: MOLT-4; assay: NCI one-dose SRB anti-proliferative screen; assay type: cell-based, human; details: for inhibition at 10 µM: Homo sapiens, read-out: Cell growth inhibition %
Description: as §1, §2

[4] = test system: RXF 393; assay: NCI one-dose SRB anti-proliferative screen; assay type: cell-based, human; details: for inhibition at 10 µM: Homo sapiens, read-out: Cell growth inhibition %
Description: as §1, §2

[5] = test system: T-47D; assay: NCI one-dose SRB anti-proliferative screen; assay type: cell-based, human; details: for inhibition at 10 µM: Homo sapiens, T47D, read-out: Cell growth inhibition %
Description: as §1, §2

[6] = test system: COLO 205; assay: NCI one-dose SRB anti-proliferative screen; assay type: cell-based; details: Homo sapiens, read-out: Cell growth inhibition %
Description: as §1, §2

[7] = test system: HCC-2998; assay: NCI one-dose SRB anti-proliferative screen; assay type: cell-based; details: Homo sapiens, read-out: Cell growth inhibition %
Description: as §1, §2

[8] = test system: NCI-H522; assay: NCI one-dose SRB anti-proliferative screen; assay type: cell-based; details: Homo sapiens, read-out: Cell growth inhibition %
Description: as §1, §2

[9] = test system: A-549; assay: Propidium iodide anti-proliferative assay; assay type: cell-based; details: Homo sapiens, A549; 48 h incubation; read-out: IC50 ± SEM A-549
Description: (§3) The propidium iodide (PI) tests^31, 32 were further used for assessment of the IC50 of all synthesized compounds and compared to Doxorubicin as a positive control against four cancer cell lines; pancreatic cancer cell line (Panc-1), epithelial line cancer cell (A-549), breast cancer cell line (MCF-7), and colon cancer cell line (HT-29).
(§4) Using the propidium iodide fluorescence assay with doxorubicin as the reference drug, IC50 of the 24 compounds 7a-x, was carried out according to a previously reported procedure^31, 32 against a panel of four human cancer cell lines; epithelial cancer cell line (A-549), breast cancer cell line (MCF-7), colon cancer cell line (HT-29) and pancreas cancer cell line (Panc-1). Compounds 7a-x were incubated with cancer cells for 2 days at different concentrations. See Appendix A.
(§5) To explore the antiproliferative potential of compounds propidium iodide fluorescence assay was performed using different cell lines (melanoma cancer cell line LOX-IMVI, pancreatic cancer cell line (Panc-1), epithelial line cancer cell (A-549), breast cancer cell line (MCF-7), and colon cancer cell line (HT-29). To calculate the total nuclear DNA, a fluorescent dye (propidium iodide, PI) is used which can attach to the DNA,^9,^10 thus offering a quick and precise technique. PI cannot pass through the cell membrane and its signal intensity can be considered as directly proportional to the quantity of cellular DNA. Cells whose cell membranes are damaged or have changed permeability are counted as dead ones. The assay was performed by seeding the cells of different cancer cell lines at a density of 3000-7500 cells/well (in 200µl medium) in culture plates followed by incubation for 24h at 37 °C in humidified 5% CO2/95% air atmospheric conditions. The medium was removed; the compounds were added to the plates at 10 µM concentrations (in 0.1% DMSO) in triplicates, followed by incubation for 48 h. DMSO (0.1%) was used as control. After incubation, medium was removed followed by the addition of PI (25 µl, 50µg/mL in water/medium) to each well of the plates. At -80 °C, the plates were allowed to freeze for 24 h, followed by thawing at 25 °C. A fluorometer (Polar-Star BMG Tech) was used to record the readings at excitation and emission wavelengths of 530 and 620 nm for each well. The percentage cytotoxicity of compounds was calculated using the following formula:
(§6) Where ATC= Absorbance of treated cells and AC= Absorbance of control. […]

[10] = test system: HT-29; assay: Propidium iodide anti-proliferative assay; assay type: cell-based; details: Homo sapiens, 48 h incubation, read-out: IC50 ± SEM HT-29
Description: as §3, §4, §5, §6

[11] = test system: MCF-7; assay: Propidium iodide anti-proliferative assay; assay type: cell-based; details: Homo sapiens, MCF7; 48 h incubation; read-out: IC50 ± SEM MCF-7
Description: as §3, §4, §5, §6

[12] = test system: Panc-1; assay: Propidium iodide anti-proliferative assay; assay type: cell-based; details: Homo sapiens, 48 h incubation, read-out: IC50 ± SEM Panc-1
Description: as §3, §4, §5, §6

[13] = MTT cell viability assay in normal cells; assay type: cell-based; details: human, MCF-10A normal mammary epithelial cells
Description: To check the safety of prepared compounds and evaluate their selectivity towards tumor cells over normal ones, the toxicity of compounds 7a-x were evaluated by 3-(4,5-Dimethylthiazole-2-yl)-2,5-diphenyltetrazol (MTT) assay on the normal human mammary epithelial cell line (MCF-10 A). The human mammary epithelial cell lines were incubated for four days with a concentration of 50 µM of compounds 7a-x.
MTT assay was done to determine the effect of the synthesized compounds on the viability of mammary epithelial cells (MCF-10 A). Compounds 7a-x were incubated with MCF-10 A cells for 4 days at 50 µM concentration, and the viability of cells was determined. See Appendix A.
MTT assay was carried out to study the effect of compounds on mammary epithelial cells (MCF-10A).^7, ^8 The medium in which cells were propagated contained Dulbecco's modified Eagle's medium (DMEM)/ Ham's F-12 medium (1:1) supplemented with epidermal growth factor (20 ng/mL), hydrocortisone (500 ng/mL), insulin (10 μg/mL), 2 mM glutamine and 10% foetal calf serum. After every 2-3 days, the cells were passaged using trypsin ethylenediamine tetra acetic acid (EDTA). The cells were seeded at a density of 10^4 cells mL^-1 in flat-bottomed culture plates containing 96 wells each. After 24 h, medium was removed from the plates and the compounds in (in 0.1% DMSO) were added (in 200 μL medium to yield a final concentration of 0.1% v/v) to the wells of plates. A single compound was designated with four wells followed by incubation of plates for 96h at 37°C. After incubation, medium was removed completely from the plates followed by addition of MTT (0.4 mg/mL in medium) to each well and subsequent incubation of plates for 3h. MTT (along with the medium) was removed and DMSO (150μL) was added to each well of the culture plates, followed by vortexing and subsequent measurement of absorbance (at 540 nm) using microplate reader.

[14] = HCT-116, Colon cancer, NCI one dose
[15] = RXF 393, Renal cancer, NCI one dose
[16] = T-47D, Breast cancer, NCI one dose
[17] = COLO 205, Colon cancer, NCI one dose
[18] = HCC-2998, Colon cancer, NCI one dose
[19] = NCI-H522, Non-Small Cell Lung Cancer, NCI one dose
[20] = HCT-116 (Colon Cancer), NCI one dose 10 µM
[21] = K-562 (Leukemia), NCI one dose 10 µM
[22] = MOLT-4 (Leukemia), NCI one dose 10 µM
[23] = RXF 393 (Renal Cancer), NCI one dose 10 µM
[24] = T-47D (Breast Cancer), NCI one dose 10 µM
[25] = COLO 205 (Colon Cancer), NCI one dose 10 µM
[26] = HCC-2998 (Colon Cancer), NCI one dose 10 µM
[27] = NCI-H522 (Non-Small Cell Lung Cancer), NCI one dose 10 µM

| Compound | inhibition at 10 µM [1, 14] | inhibition at 10 µM ([2]; K-562, Leukemia, NCI one dose) | inhibition at 10 µM ([3]; MOLT-4, Leukemia, NCI one dose) | inhibition at 10 µM [4, 15] | inhibition at 10 µM [5, 16] | inhibition at 10 µM [6, 17] | inhibition at 10 µM [7, 18] | inhibition at 10 µM [8, 19] | IC50 [9] | IC50 [10] | IC50 [11] | IC50 [12] | viability at 96 h, 50 µM [13] | melting point | inhibition at 10 µM [1, 20] | inhibition at 10 µM [2, 21] | inhibition at 10 µM [3, 22] | inhibition at 10 µM [4, 23] | inhibition at 10 µM [5, 24] | inhibition at 10 µM [6, 25] | also measured |
| --- | --- | --- | --- | --- | --- | --- | --- | --- | --- | --- | --- | --- | --- | --- | --- | --- | --- | --- | --- | --- | --- |
| COc1ccc(/C=C/C(=O)c2ccc(NC(=O)CSc3nnc(-c4ccc5[nH]c(-c6ccccc6)nc5c4)o3)cc2)cc1 [Compound 7c, 2-{5-[2-Phenyl-1 H-benzo[d]imidazol-5-yl]-1,3,4-oxadiazol-2-ylthio}-N-{4-[(E)-3-(4-methoxyphenyl)acryloyl]phenyl}acetamide] | 15.1% | 3.83% | 23.9% | 8.38% | 47.6% | 0% | 0% | 8.81% | 4700 ± 500 nM | 5500 ± 500 nM | 4150 ± 500 nM | 5200 ± 400 nM | 87% | 175 to 177 °C | – | – | – | – | – | – | Growth Percent ([5]; T-47D (Breast Cancer), 10 µM one dose): 52.35% |
| COc1ccc(/C=C/C(=O)c2ccc(NC(=O)CSc3nnc(-c4ccc5[nH]c(-c6ccccc6)nc5c4)o3)cc2)cc1OC [Compound 7d, 2-{5-[2-Phenyl-1 H-benzo[d]imidazol-5-yl]-1,3,4-oxadiazol-2-ylthio}-N-{4-[(E)-3-(3,4-dimethoxyphenyl)acryloyl]phenyl}acetamide] | 6.47% | 0% | 7.24% | 0% | 2.51% | 0% | 0% | 3.75% | 9700 ± 1100 nM | 11100 ± 1400 nM | 8900 ± 1100 nM | 10300 ± 1300 nM | 89% | 156 to 158 °C | – | – | – | – | – | – | – |
| COc1cc(/C=C/C(=O)c2ccc(NC(=O)CSc3nnc(-c4ccc5[nH]c(-c6ccccc6)nc5c4)o3)cc2)cc(OC)c1OC [Compound 7e, 2-{5-[2-Phenyl-1 H-benzo[d]imidazol-5-yl]-1,3,4-oxadiazol-2-ylthio}-N-{4-[(E)-3-(3,4,5-trimethoxyphenyl)acryloyl]phenyl}acetamide] | 59.2% | 41.7% | 35% | 107% | 11.1% | 0% | 0% | 4.71% | 1600 ± 300 nM | 1950 ± 300 nM | 1250 ± 80 nM | 1700 ± 300 nM | 87% | 143 to 144 °C | – | – | – | – | – | – | Growth Percent ([1]; HCT-116 (Colon Cancer), 10 µM one dose): 40.76%; Growth Percent ([2]; K-562 (Leukemia), 10 µM one dose): 58%; Growth Percent ([3]; MOLT-4 (Leukemia), 10 µM one dose): 30%; Growth Percent ([4]; RXF 393 (Renal Cancer), 10 µM one dose): -6.89% |
| O=C(CSc1nnc(-c2ccc3[nH]c(-c4ccc(Cl)cc4)nc3c2)o1)Nc1ccc(C(=O)/C=C/c2ccccc2)cc1 [Compound 7f, 2-{5-[2-(4-Chlorophenyl)-1 H-benzo[d]imidazol-5-yl]-1,3,4-oxadiazol-2-ylthio}-N-{4-[(E)-3-phenylacryloyl]phenyl}acetamide] | – | – | – | – | – | – | – | – | 2150 ± 500 nM | 2700 ± 500 nM | 2050 ± 500 nM | 2400 ± 600 nM | 87% | 161 to 163 °C | 0% | 8.26% | 9% | 0% | 0% | 0% | inhibition at 10 µM [7, 26]: 0%; inhibition at 10 µM [8, 27]: 0% |
| O=C(CSc1nnc(-c2ccc3[nH]c(-c4ccc(Cl)cc4)nc3c2)o1)Nc1ccc(C(=O)/C=C/c2ccc(Cl)cc2)cc1 [Compound 7g, 2-{5-[2-(4-Chlorophenyl)-1 H-benzo[d]imidazol-5-yl]-1,3,4-oxadiazol-2-ylthio}-N-{4-[(E)-3-(4-chlorophenyl)acryloyl]phenyl}acetamide] | – | – | – | – | – | – | – | – | 1800 ± 600 nM | 2100 ± 600 nM | 1450 ± 300 nM | 1900 ± 500 nM | 91% | 215 to 217 °C | 22.2% | 18.6% | 22.2% | 0% | 12.9% | 0% | inhibition at 10 µM [7, 26]: 0%; inhibition at 10 µM [8, 27]: 11.6% |
| COc1ccc(/C=C/C(=O)c2ccc(NC(=O)CSc3nnc(-c4ccc5[nH]c(-c6ccc(Cl)cc6)nc5c4)o3)cc2)cc1 [Compound 7h, 2-{5-[2-(4-Chlorophenyl)-1 H-benzo[d]imidazol-5-yl]-1,3,4-oxadiazol-2-ylthio}-N-{4-[(E)-3-(4-methoxyphenyl)acryloyl]phenyl}acetamide] | – | – | – | – | – | – | – | – | 1950 ± 600 nM | 2250 ± 600 nM | 1750 ± 400 nM | 2050 ± 500 nM | 87% | 228 to 230 °C | 6.56% | 12.7% | 35.4% | 0% | 22% | 0% | inhibition at 10 µM [7, 26]: 0%; inhibition at 10 µM [8, 27]: 20.9% |
